Measured values reported in patent publication US10131652B2, “Pyrimidinyloxy benzene derivatives as herbicides” (E. I. DU PONT DE NEMOURS AND COMPANY, priority 2014, dated 2018).

Experiments:
Assay in all cases: Test D pre-/postemergence plant response
Assay type in all cases: in vivo
[1] = test system: blackgrass (Alopecurus myosuroides); settings: Postemergence; for Plant response rating (scale 0 to 100), Blackgrass: 16 g ai/ha; for Blackgrass plant response rating: 31 g ai/ha, scale 0 to 100 (0 no effect, 100 complete control); for Plant response rating, Blackgrass: scale 0 to 100, 0 no effect, 100 complete control
Summary of the method: (§1)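 Test chemicals were formulated in a non-phytotoxic solvent mixture containing surfactant and applied either preemergence to seeds in loam–sand soil or postemergence to plants 2 to 18 cm tall (1- to 4-leaf stage). Response was rated visually against controls after 13 to 15 days, from 0 (none) to 100 (complete control).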

[2] = test system: giant foxtail (Setaria faberii); settings: Postemergence; for Plant response rating (scale 0 to 100), Foxtail, Giant: 16 g ai/ha; for Foxtail, Giant plant response rating: 31 g ai/ha, scale 0 to 100 (0 no effect, 100 complete control); for Plant response rating, Foxtail, Giant: scale 0 to 100, 0 no effect, 100 complete control
Summary of the method: as §1

[3] = test system: barnyardgrass (Echinochloa crus-galli); settings: Postemergence; for Plant response rating (scale 0 to 100), Barnyardgrass: 16 g ai/ha; for Barnyardgrass plant response rating: 31 g ai/ha, scale 0 to 100 (0 no effect, 100 complete control); for Plant response rating, Barnyardgrass: scale 0 to 100, 0 no effect, 100 complete control
Summary of the method: as §1

[4] = test system: pigweed (Amaranthus retroflexus); settings: Postemergence; for Plant response rating (scale 0 to 100), Pigweed: 16 g ai/ha; for Plant response rating, Pigweed: 125 g ai/ha
Summary of the method: as §1

[5] = test system: large (Lg) crabgrass (Digitaria sanguinalis); settings: Postemergence; for Plant response rating (scale 0 to 100), Crabgrass, Large: 16 g ai/ha; for Crabgrass, Large plant response rating: 31 g ai/ha, scale 0 to 100 (0 no effect, 100 complete control); for Plant response rating, Crabgrass, Large: scale 0 to 100, 0 no effect, 100 complete control
Summary of the method: as §1

[6] = test system: winter wheat (Triticum aestivum); settings: Postemergence; for Plant response rating (scale 0 to 100), Wheat: 16 g ai/ha; for Plant response rating, Wheat: 125 g ai/ha
Summary of the method: as §1

[7] = test system: velvetleaf (Abutilon theophrasti); settings: Postemergence; for Plant response rating (scale 0 to 100), Velvetleaf: 16 g ai/ha; for Plant response rating, Velvetleaf: 125 g ai/ha
Summary of the method: as §1

[8] = test system: lambsquarters (Chenopodium album); settings: Postemergence; for Plant response rating (scale 0 to 100), Lambsquarters: 16 g ai/ha; for Plant response rating, Lambsquarters: 125 g ai/ha
Summary of the method: as §1

[9] = test system: johnsongrass (Sorghum halepense); settings: Postemergence; for Plant response rating (scale 0 to 100), Johnsongrass: 16 g ai/ha; for Johnsongrass plant response rating: 31 g ai/ha, scale 0 to 100 (0 no effect, 100 complete control); for Plant response rating, Johnsongrass: scale 0 to 100, 0 no effect, 100 complete control
Summary of the method: as §1

[10] = test system: Italian ryegrass (Lolium multiflorum); settings: Postemergence; for Plant response rating (scale 0 to 100), Ryegrass, Italian: 16 g ai/ha; for Plant response rating, Ryegrass, Italian: 125 g ai/ha
Summary of the method: as §1

[11] = test system: waterhemp (common waterhemp, Amaranthus rudis); settings: Postemergence; for Plant response rating (scale 0 to 100), Waterhemp: 16 g ai/ha; for Plant response rating, Waterhemp: 125 g ai/ha
Summary of the method: as §1

[12] = test system: ragweed (common ragweed, Ambrosia elatior); settings: Postemergence; for Plant response rating (scale 0 to 100), Ragweed: 16 g ai/ha; for Plant response rating, Ragweed: 125 g ai/ha
Summary of the method: as §1

[13] = test system: oilseed rape (Brassica napus); settings: Postemergence; for Plant response rating (scale 0 to 100), Oilseed Rape: 16 g ai/ha; for Plant response rating, Oilseed Rape: 125 g ai/ha
Summary of the method: as §1

soybean (Glycine max) = settings: Postemergence; for Plant response rating (scale 0 to 100), Soybean: 16 g ai/ha; for Plant response rating, Soybean: 125 g ai/ha
Summary of the method: as §1

corn (Zea mays) = settings: Postemergence; for Plant response rating (scale 0 to 100), Corn: 16 g ai/ha; for Corn plant response rating: 31 g ai/ha, scale 0 to 100 (0 no effect, 100 complete control); for Plant response rating, Corn: scale 0 to 100, 0 no effect, 100 complete control
Summary of the method: as §1

[14] = test system: yellow nutsedge (Cyperus esculentus); settings: Postemergence; for Plant response rating (scale 0 to 100), Nutsedge, Yellow: 16 g ai/ha; for Plant response rating, Nutsedge, Yellow: 125 g ai/ha
Summary of the method: as §1

[15] = test system: galium (catchweed bedstraw, Galium aparine); settings: Postemergence; for Plant response rating (scale 0 to 100), Galium: 16 g ai/ha; for Galium plant response rating: 31 g ai/ha, scale 0 to 100 (0 no effect, 100 complete control); for Plant response rating, Galium: scale 0 to 100, 0 no effect, 100 complete control
Summary of the method: as §1

[16] = test system: morningglory (Ipomoea coccinea); settings: Postemergence; for Plant response rating (scale 0 to 100), Morningglory: 16 g ai/ha; for Plant response rating, Morningglory: 125 g ai/ha
Summary of the method: as §1

[17] = 31 g ai/ha, scale 0 to 100 (0 no effect, 100 complete control)
[18] = 62 g ai/ha, scale 0 to 100, 0 no effect, 100 complete control
[19] = scale 0 to 100, 0 no effect, 100 complete control

Compound: Clc1cnc(Oc2ccccc2-c2ccon2)nc1 [Compound 185]
- Plant response rating (scale 0 to 100), Blackgrass [1]: 0
- Blackgrass plant response rating [1]: 0
- Plant response rating, Blackgrass ([1]; 62 g ai/ha): 0
- Plant response rating, Blackgrass ([1]; 125 g ai/ha): 0
- Plant response rating (scale 0 to 100), Foxtail, Giant [2]: 35
- Foxtail, Giant plant response rating [2]: 5
- Plant response rating, Foxtail, Giant ([2]; 62 g ai/ha): 5
- Plant response rating, Foxtail, Giant ([2]; 125 g ai/ha): 5
- Plant response rating (scale 0 to 100), Barnyardgrass [3]: 0
- Barnyardgrass plant response rating [3]: 0
- Plant response rating, Barnyardgrass ([3]; 62 g ai/ha): 0
- Plant response rating, Barnyardgrass ([3]; 125 g ai/ha): 5
- Plant response rating (scale 0 to 100), Pigweed [4]: 10
- Pigweed plant response rating [4, 17]: 35
- Pigweed plant response rating [4, 18]: 35
- Plant response rating, Pigweed [4, 19]: 50
- Plant response rating (scale 0 to 100), Crabgrass, Large [5]: 0
- Crabgrass, Large plant response rating [5]: 0
- Plant response rating, Crabgrass, Large ([5]; 62 g ai/ha): 10
- Plant response rating, Crabgrass, Large ([5]; 125 g ai/ha): 10
- Plant response rating (scale 0 to 100), Wheat [6]: 0
- Wheat plant response rating [6, 17]: 0
- Wheat plant response rating [6, 18]: 0
- Plant response rating, Wheat [6, 19]: 0
- Plant response rating (scale 0 to 100), Velvetleaf [7]: 5
- Velvetleaf plant response rating [7, 17]: 10
- Velvetleaf plant response rating [7, 18]: 10
- Plant response rating, Velvetleaf [7, 19]: 25
- Plant response rating (scale 0 to 100), Lambsquarters [8]: 10
- Lambsquarters plant response rating [8, 17]: 10
- Lambsquarters plant response rating [8, 18]: 15
- Plant response rating, Lambsquarters [8, 19]: 20
- Plant response rating (scale 0 to 100), Johnsongrass [9]: 0
- Johnsongrass plant response rating [9]: 0
- Plant response rating, Johnsongrass ([9]; 62 g ai/ha): 5
- Plant response rating, Johnsongrass ([9]; 125 g ai/ha): 5
- Plant response rating (scale 0 to 100), Ryegrass, Italian [10]: 0
- Ryegrass, Italian plant response rating [10, 17]: 0
- Ryegrass, Italian plant response rating [10, 18]: 0
- Plant response rating, Ryegrass, Italian [10, 19]: 0
- Plant response rating (scale 0 to 100), Waterhemp [11]: 5
- Waterhemp plant response rating [11, 17]: 25
- Waterhemp plant response rating [11, 18]: 25
- Plant response rating, Waterhemp [11, 19]: 30
- Plant response rating (scale 0 to 100), Ragweed [12]: 10
- Ragweed plant response rating [12, 17]: 20
- Ragweed plant response rating [12, 18]: 15
- Plant response rating, Ragweed [12, 19]: 25
- Plant response rating (scale 0 to 100), Oilseed Rape [13]: 0
- Oilseed Rape plant response rating [13, 17]: 0
- Oilseed Rape plant response rating [13, 18]: 0
- Plant response rating, Oilseed Rape [13, 19]: 0
- Plant response rating (scale 0 to 100), Soybean (soybean (Glycine max)): 15
- Soybean plant response rating (soybean (Glycine max); [17]): 30
- Soybean plant response rating (soybean (Glycine max); [18]): 35
- Plant response rating, Soybean (soybean (Glycine max); [19]): 45
- Plant response rating (scale 0 to 100), Corn (corn (Zea mays)): 0
- Corn plant response rating (corn (Zea mays)): 0
- Plant response rating, Corn (corn (Zea mays); 62 g ai/ha): 5
- Plant response rating, Corn (corn (Zea mays); 125 g ai/ha): 5
- Plant response rating (scale 0 to 100), Nutsedge, Yellow [14]: 0
- Nutsedge, Yellow plant response rating [14, 17]: 0
- Nutsedge, Yellow plant response rating [14, 18]: 0
- Plant response rating, Nutsedge, Yellow [14, 19]: 30
- Plant response rating (scale 0 to 100), Galium [15]: 0
- Galium plant response rating [15]: 0
- Plant response rating, Galium ([15]; 62 g ai/ha): 5
- Plant response rating, Galium ([15]; 125 g ai/ha): 5
- Plant response rating (scale 0 to 100), Morningglory [16]: 0
- Morningglory plant response rating [16, 17]: 25
- Morningglory plant response rating [16, 18]: 10
- Plant response rating, Morningglory [16, 19]: 65

Compound: FCc1cc(-c2c(Br)cccc2Oc2ncc(Cl)cn2)no1 [Compound 191]
- Plant response rating (scale 0 to 100), Blackgrass [1]: 0
- Blackgrass plant response rating [1]: 0
- Plant response rating, Blackgrass ([1]; 62 g ai/ha): 0
- Plant response rating, Blackgrass ([1]; 125 g ai/ha): 5
- Plant response rating (scale 0 to 100), Foxtail, Giant [2]: 5
- Foxtail, Giant plant response rating [2]: 5
- Plant response rating, Foxtail, Giant ([2]; 62 g ai/ha): 5
- Plant response rating, Foxtail, Giant ([2]; 125 g ai/ha): 5
- Plant response rating (scale 0 to 100), Barnyardgrass [3]: 5
- Barnyardgrass plant response rating [3]: 5
- Plant response rating, Barnyardgrass ([3]; 62 g ai/ha): 5
- Plant response rating, Barnyardgrass ([3]; 125 g ai/ha): 10
- Plant response rating (scale 0 to 100), Pigweed [4]: 35
- Pigweed plant response rating [4, 17]: 30
- Pigweed plant response rating [4, 18]: 30
- Plant response rating, Pigweed [4, 19]: 60
- Plant response rating (scale 0 to 100), Crabgrass, Large [5]: 5
- Crabgrass, Large plant response rating [5]: 10
- Plant response rating, Crabgrass, Large ([5]; 62 g ai/ha): 10
- Plant response rating, Crabgrass, Large ([5]; 125 g ai/ha): 20
- Plant response rating (scale 0 to 100), Wheat [6]: 0
- Wheat plant response rating [6, 17]: 0
- Wheat plant response rating [6, 18]: 0
- Plant response rating, Wheat [6, 19]: 0
- Plant response rating (scale 0 to 100), Velvetleaf [7]: 15
- Velvetleaf plant response rating [7, 17]: 30
- Velvetleaf plant response rating [7, 18]: 30
- Plant response rating, Velvetleaf [7, 19]: 50
- Plant response rating (scale 0 to 100), Lambsquarters [8]: 50
- Lambsquarters plant response rating [8, 17]: 70
- Lambsquarters plant response rating [8, 18]: 70
- Plant response rating, Lambsquarters [8, 19]: 85
- Plant response rating (scale 0 to 100), Johnsongrass [9]: 5
- Johnsongrass plant response rating [9]: 5
- Plant response rating, Johnsongrass ([9]; 62 g ai/ha): 5
- Plant response rating, Johnsongrass ([9]; 125 g ai/ha): 5
- Plant response rating (scale 0 to 100), Ryegrass, Italian [10]: 0
- Ryegrass, Italian plant response rating [10, 17]: 0
- Ryegrass, Italian plant response rating [10, 18]: 0
- Plant response rating, Ryegrass, Italian [10, 19]: 5
- Plant response rating (scale 0 to 100), Waterhemp [11]: 25
- Waterhemp plant response rating [11, 17]: 60
- Waterhemp plant response rating [11, 18]: 70
- Plant response rating, Waterhemp [11, 19]: 65
- Plant response rating (scale 0 to 100), Ragweed [12]: 30
- Ragweed plant response rating [12, 17]: 40
- Ragweed plant response rating [12, 18]: 60
- Plant response rating, Ragweed [12, 19]: 65
- Plant response rating (scale 0 to 100), Oilseed Rape [13]: 0
- Oilseed Rape plant response rating [13, 17]: 40
- Oilseed Rape plant response rating [13, 18]: 60
- Plant response rating, Oilseed Rape [13, 19]: 90
- Plant response rating (scale 0 to 100), Soybean (soybean (Glycine max)): 45
- Soybean plant response rating (soybean (Glycine max); [17]): 65
- Soybean plant response rating (soybean (Glycine max); [18]): 75
- Plant response rating, Soybean (soybean (Glycine max); [19]): 95
- Plant response rating (scale 0 to 100), Corn (corn (Zea mays)): 5
- Corn plant response rating (corn (Zea mays)): 5
- Plant response rating, Corn (corn (Zea mays); 62 g ai/ha): 10
- Plant response rating, Corn (corn (Zea mays); 125 g ai/ha): 10
- Plant response rating (scale 0 to 100), Nutsedge, Yellow [14]: 0
- Nutsedge, Yellow plant response rating [14, 17]: 5
- Nutsedge, Yellow plant response rating [14, 18]: 5
- Plant response rating, Nutsedge, Yellow [14, 19]: 10
- Plant response rating (scale 0 to 100), Galium [15]: 40
- Galium plant response rating [15]: 70
- Plant response rating, Galium ([15]; 62 g ai/ha): 85
- Plant response rating, Galium ([15]; 125 g ai/ha): 85
- Plant response rating (scale 0 to 100), Morningglory [16]: 65
- Morningglory plant response rating [16, 17]: 65
- Morningglory plant response rating [16, 18]: 60
- Plant response rating, Morningglory [16, 19]: 85
